# Test results reported in ChEMBL document CHEMBL3400108, “Synthesis and biological evaluation of open-chain analogs of cyclic peptides as inhibitors of cellular Shp2 activity” (Bioorg Med Chem, 2015).
# Non-standard residues stand in square brackets, D forms with d. Residues, ends and D or L forms follow the SMILES beside them. Groups on a side chain read outwards from the residue. *: point of attachment. 2Nal = N[C@@H](Cc1ccc2ccccc2c1)C(=O)O; NEt2 = CCN(CC)*
# Test system: HeLa
# Test: Antitumor activity against human HeLa cells
# Assay type: functional, cell-based
row,Structure (SMILES),IC50 [µg/mL]
1,CCN(CC)C(=O)[C@H](Cc1ccccc1)NC(=O)[C@H](CC(C)C)NC(=O)[C@@H](NC(=O)[C@@H](N)COC(=O)[C@@H]1CCCN1C(C)=O)C(C)C (H-S([Pro-Ac])VLF-NEt2),> 50
2,CCN(CC)C(=O)[C@H](Cc1ccc(OC)cc1)NC(=O)[C@H](CC(C)C)NC(=O)[C@@H](NC(=O)[C@@H](N)COC(=O)[C@@H]1CCCN1C(C)=O)C(C)C (H-S([Pro-Ac])VLY(Me)-NEt2),> 50
3,CCN(CC)C(=O)[C@H](Cc1ccc2ccccc2c1)NC(=O)[C@H](CC(C)C)NC(=O)[C@@H](NC(=O)[C@@H](N)COC(=O)[C@@H]1CCCN1C(C)=O)C(C)C (H-S([Pro-Ac])VL[2Nal]-NEt2),> 50

# Test system: MDA-MB-231
# Test: Antitumor activity against human MDA-MB-231 cells
# Assay type: functional, cell-based
row,Structure (SMILES),IC50 [µg/mL]
1,CCN(CC)C(=O)[C@H](Cc1ccccc1)NC(=O)[C@H](CC(C)C)NC(=O)[C@@H](NC(=O)[C@@H](N)COC(=O)[C@@H]1CCCN1C(C)=O)C(C)C (H-S([Pro-Ac])VLF-NEt2),> 50
2,CCN(CC)C(=O)[C@H](Cc1ccc(OC)cc1)NC(=O)[C@H](CC(C)C)NC(=O)[C@@H](NC(=O)[C@@H](N)COC(=O)[C@@H]1CCCN1C(C)=O)C(C)C (H-S([Pro-Ac])VLY(Me)-NEt2),> 50
3,CCN(CC)C(=O)[C@H](Cc1ccc2ccccc2c1)NC(=O)[C@H](CC(C)C)NC(=O)[C@@H](NC(=O)[C@@H](N)COC(=O)[C@@H]1CCCN1C(C)=O)C(C)C (H-S([Pro-Ac])VL[2Nal]-NEt2),> 50

# Test system: not listed separately
# Test: Inhibition of IMPDH (unknown origin)
# Set-up: species or system Homo sapiens
row,Structure (SMILES),IC50 [µg/mL]
1,CCN(CC)C(=O)[C@H](Cc1ccccc1)NC(=O)[C@H](CC(C)C)NC(=O)[C@@H](NC(=O)[C@@H](N)COC(=O)[C@@H]1CCCN1C(C)=O)C(C)C (H-S([Pro-Ac])VLF-NEt2),> 100
2,CCN(CC)C(=O)[C@H](Cc1ccc(OC)cc1)NC(=O)[C@H](CC(C)C)NC(=O)[C@@H](NC(=O)[C@@H](N)COC(=O)[C@@H]1CCCN1C(C)=O)C(C)C (H-S([Pro-Ac])VLY(Me)-NEt2),> 100
3,CCN(CC)C(=O)[C@H](Cc1ccc2ccccc2c1)NC(=O)[C@H](CC(C)C)NC(=O)[C@@H](NC(=O)[C@@H](N)COC(=O)[C@@H]1CCCN1C(C)=O)C(C)C (H-S([Pro-Ac])VL[2Nal]-NEt2),> 100

# Target: Acetylcholinesterase (Homo sapiens, UniProt P22303)
# Sequence (P22303 whole entry): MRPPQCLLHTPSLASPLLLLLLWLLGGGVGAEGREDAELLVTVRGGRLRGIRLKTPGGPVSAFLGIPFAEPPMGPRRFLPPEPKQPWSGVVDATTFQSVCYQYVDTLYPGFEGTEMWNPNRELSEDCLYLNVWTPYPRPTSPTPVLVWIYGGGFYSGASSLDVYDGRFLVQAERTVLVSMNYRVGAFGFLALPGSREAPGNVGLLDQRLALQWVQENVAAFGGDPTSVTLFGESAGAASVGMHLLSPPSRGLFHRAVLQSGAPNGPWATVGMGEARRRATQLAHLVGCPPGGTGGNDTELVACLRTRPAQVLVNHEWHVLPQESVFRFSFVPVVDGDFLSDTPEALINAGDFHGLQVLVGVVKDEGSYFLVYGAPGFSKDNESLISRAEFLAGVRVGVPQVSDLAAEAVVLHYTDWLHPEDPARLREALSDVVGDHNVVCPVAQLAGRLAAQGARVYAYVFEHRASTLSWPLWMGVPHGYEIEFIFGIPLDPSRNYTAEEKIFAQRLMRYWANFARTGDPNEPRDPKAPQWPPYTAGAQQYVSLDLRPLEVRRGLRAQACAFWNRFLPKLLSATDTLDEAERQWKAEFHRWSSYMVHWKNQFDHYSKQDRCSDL
# Test: Inhibition of AchE (unknown origin)
row,Structure (SMILES),IC50 [µM]
1,CCN(CC)C(=O)[C@H](Cc1ccccc1)NC(=O)[C@H](CC(C)C)NC(=O)[C@@H](NC(=O)[C@@H](N)COC(=O)[C@@H]1CCCN1C(C)=O)C(C)C (H-S([Pro-Ac])VLF-NEt2),> 152
2,CCN(CC)C(=O)[C@H](Cc1ccc(OC)cc1)NC(=O)[C@H](CC(C)C)NC(=O)[C@@H](NC(=O)[C@@H](N)COC(=O)[C@@H]1CCCN1C(C)=O)C(C)C (H-S([Pro-Ac])VLY(Me)-NEt2),> 145
3,CCN(CC)C(=O)[C@H](Cc1ccc2ccccc2c1)NC(=O)[C@H](CC(C)C)NC(=O)[C@@H](NC(=O)[C@@H](N)COC(=O)[C@@H]1CCCN1C(C)=O)C(C)C (H-S([Pro-Ac])VL[2Nal]-NEt2),> 141

# Test system: Proteasome
# Test: Inhibition of proteasome (unknown origin)
# Assay type: subcellular, Homo sapiens
row,Structure (SMILES),IC50 [µg/mL]
1,CCN(CC)C(=O)[C@H](Cc1ccccc1)NC(=O)[C@H](CC(C)C)NC(=O)[C@@H](NC(=O)[C@@H](N)COC(=O)[C@@H]1CCCN1C(C)=O)C(C)C (H-S([Pro-Ac])VLF-NEt2),> 100
2,CCN(CC)C(=O)[C@H](Cc1ccc(OC)cc1)NC(=O)[C@H](CC(C)C)NC(=O)[C@@H](NC(=O)[C@@H](N)COC(=O)[C@@H]1CCCN1C(C)=O)C(C)C (H-S([Pro-Ac])VLY(Me)-NEt2),> 100
3,CCN(CC)C(=O)[C@H](Cc1ccc2ccccc2c1)NC(=O)[C@H](CC(C)C)NC(=O)[C@@H](NC(=O)[C@@H](N)COC(=O)[C@@H]1CCCN1C(C)=O)C(C)C (H-S([Pro-Ac])VL[2Nal]-NEt2),> 100

# Target: T1, Monoglyceride lipase (Homo sapiens, UniProt Q99685)
# T1 sequence (Q99685 whole entry): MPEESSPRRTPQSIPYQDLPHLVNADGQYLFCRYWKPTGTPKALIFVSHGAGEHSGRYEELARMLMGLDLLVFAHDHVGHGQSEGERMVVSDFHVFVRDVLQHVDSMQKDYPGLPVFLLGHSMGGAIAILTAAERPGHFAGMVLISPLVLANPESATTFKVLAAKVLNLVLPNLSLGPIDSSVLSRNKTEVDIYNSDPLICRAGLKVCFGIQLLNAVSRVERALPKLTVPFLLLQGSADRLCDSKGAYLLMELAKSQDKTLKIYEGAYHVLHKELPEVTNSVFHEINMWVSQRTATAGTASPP
# Test: Inhibition of MAGL (unknown origin)
row,Structure (SMILES),IC50 [µM]
1,CCN(CC)C(=O)[C@H](Cc1ccccc1)NC(=O)[C@H](CC(C)C)NC(=O)[C@@H](NC(=O)[C@@H](N)COC(=O)[C@@H]1CCCN1C(C)=O)C(C)C (H-S([Pro-Ac])VLF-NEt2),> 152
2,CCN(CC)C(=O)[C@H](Cc1ccc(OC)cc1)NC(=O)[C@H](CC(C)C)NC(=O)[C@@H](NC(=O)[C@@H](N)COC(=O)[C@@H]1CCCN1C(C)=O)C(C)C (H-S([Pro-Ac])VLY(Me)-NEt2),> 145
3,CCN(CC)C(=O)[C@H](Cc1ccc2ccccc2c1)NC(=O)[C@H](CC(C)C)NC(=O)[C@@H](NC(=O)[C@@H](N)COC(=O)[C@@H]1CCCN1C(C)=O)C(C)C (H-S([Pro-Ac])VL[2Nal]-NEt2),> 141

# Target: Cathepsin B (Homo sapiens, UniProt P07858)
# Test: Inhibition of cathepsin B (unknown origin)
row,Structure (SMILES),IC50 [µM]
1,CCN(CC)C(=O)[C@H](Cc1ccccc1)NC(=O)[C@H](CC(C)C)NC(=O)[C@@H](NC(=O)[C@@H](N)COC(=O)[C@@H]1CCCN1C(C)=O)C(C)C (H-S([Pro-Ac])VLF-NEt2),> 152
2,CCN(CC)C(=O)[C@H](Cc1ccc(OC)cc1)NC(=O)[C@H](CC(C)C)NC(=O)[C@@H](NC(=O)[C@@H](N)COC(=O)[C@@H]1CCCN1C(C)=O)C(C)C (H-S([Pro-Ac])VLY(Me)-NEt2),> 145
3,CCN(CC)C(=O)[C@H](Cc1ccc2ccccc2c1)NC(=O)[C@H](CC(C)C)NC(=O)[C@@H](NC(=O)[C@@H](N)COC(=O)[C@@H]1CCCN1C(C)=O)C(C)C (H-S([Pro-Ac])VL[2Nal]-NEt2),> 141

# Target: T2, Tyrosine-protein phosphatase non-receptor type 11 (Homo sapiens) (UniProt Q06124)
# T2 sequence (whole entry): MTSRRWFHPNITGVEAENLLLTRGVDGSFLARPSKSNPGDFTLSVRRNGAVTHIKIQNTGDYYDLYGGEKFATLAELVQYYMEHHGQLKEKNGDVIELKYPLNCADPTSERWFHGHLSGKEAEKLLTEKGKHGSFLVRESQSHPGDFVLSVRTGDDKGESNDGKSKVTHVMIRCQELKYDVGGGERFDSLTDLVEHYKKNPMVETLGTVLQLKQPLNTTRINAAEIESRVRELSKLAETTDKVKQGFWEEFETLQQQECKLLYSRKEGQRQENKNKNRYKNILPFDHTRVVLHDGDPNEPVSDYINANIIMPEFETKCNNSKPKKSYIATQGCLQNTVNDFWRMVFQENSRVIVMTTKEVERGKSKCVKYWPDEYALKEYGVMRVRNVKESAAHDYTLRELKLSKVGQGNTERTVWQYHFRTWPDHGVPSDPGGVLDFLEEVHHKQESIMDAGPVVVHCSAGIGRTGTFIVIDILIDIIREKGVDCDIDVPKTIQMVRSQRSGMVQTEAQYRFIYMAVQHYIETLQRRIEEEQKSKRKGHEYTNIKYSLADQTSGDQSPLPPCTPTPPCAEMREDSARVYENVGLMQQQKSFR
# Test: Inhibition of SHP2 (unknown origin) at 100 uM
row,Structure (SMILES),inhibition [%]
1,CCN(CC)C(=O)[C@H](Cc1ccccc1)NC(=O)[C@H](CC(C)C)NC(=O)[C@@H](NC(=O)[C@@H](N)COC(=O)[C@@H]1CCCN1C(C)=O)C(C)C (H-S([Pro-Ac])VLF-NEt2),95
2,CCN(CC)C(=O)[C@H](Cc1ccc(OC)cc1)NC(=O)[C@H](CC(C)C)NC(=O)[C@@H](NC(=O)[C@@H](N)COC(=O)[C@@H]1CCCN1C(C)=O)C(C)C (H-S([Pro-Ac])VLY(Me)-NEt2),87
3,CCN(CC)C(=O)[C@H](Cc1ccc2ccccc2c1)NC(=O)[C@H](CC(C)C)NC(=O)[C@@H](NC(=O)[C@@H](N)COC(=O)[C@@H]1CCCN1C(C)=O)C(C)C (H-S([Pro-Ac])VL[2Nal]-NEt2),94

# Target: T2, Tyrosine-protein phosphatase non-receptor type 11 (Homo sapiens)
# Test: Inhibition of SHP2 (unknown origin) at 50 uM
row,Structure (SMILES),inhibition [%]
1,CCN(CC)C(=O)[C@H](Cc1ccccc1)NC(=O)[C@H](CC(C)C)NC(=O)[C@@H](NC(=O)[C@@H](N)COC(=O)[C@@H]1CCCN1C(C)=O)C(C)C (H-S([Pro-Ac])VLF-NEt2),54
2,CCN(CC)C(=O)[C@H](Cc1ccc(OC)cc1)NC(=O)[C@H](CC(C)C)NC(=O)[C@@H](NC(=O)[C@@H](N)COC(=O)[C@@H]1CCCN1C(C)=O)C(C)C (H-S([Pro-Ac])VLY(Me)-NEt2),53
3,CCN(CC)C(=O)[C@H](Cc1ccc2ccccc2c1)NC(=O)[C@H](CC(C)C)NC(=O)[C@@H](NC(=O)[C@@H](N)COC(=O)[C@@H]1CCCN1C(C)=O)C(C)C (H-S([Pro-Ac])VL[2Nal]-NEt2),76

# Target: T2, Tyrosine-protein phosphatase non-receptor type 11 (Homo sapiens)
# Test: Inhibition of SHP2 (unknown origin) at 20 uM
row,Structure (SMILES),inhibition [%]
1,CCN(CC)C(=O)[C@H](Cc1ccccc1)NC(=O)[C@H](CC(C)C)NC(=O)[C@@H](NC(=O)[C@@H](N)COC(=O)[C@@H]1CCCN1C(C)=O)C(C)C (H-S([Pro-Ac])VLF-NEt2),29
2,CCN(CC)C(=O)[C@H](Cc1ccc(OC)cc1)NC(=O)[C@H](CC(C)C)NC(=O)[C@@H](NC(=O)[C@@H](N)COC(=O)[C@@H]1CCCN1C(C)=O)C(C)C (H-S([Pro-Ac])VLY(Me)-NEt2),35
3,CCN(CC)C(=O)[C@H](Cc1ccc2ccccc2c1)NC(=O)[C@H](CC(C)C)NC(=O)[C@@H](NC(=O)[C@@H](N)COC(=O)[C@@H]1CCCN1C(C)=O)C(C)C (H-S([Pro-Ac])VL[2Nal]-NEt2),58

# Target: T2, Tyrosine-protein phosphatase non-receptor type 11 (Homo sapiens)
# Test: Inhibition of SHP2 (unknown origin) at 25 uM
row,Structure (SMILES),inhibition [%]
1,CCN(CC)C(=O)[C@H](Cc1ccc2ccccc2c1)NC(=O)[C@H](CC(C)C)NC(=O)[C@@H](NC(=O)[C@@H](N)COC(=O)[C@@H]1CCCN1C(C)=O)C(C)C (H-S([Pro-Ac])VL[2Nal]-NEt2),61

# Target: T2, Tyrosine-protein phosphatase non-receptor type 11 (Homo sapiens)
# Test: Inhibition of SHP2 (unknown origin) at 10 uM
row,Structure (SMILES),inhibition [%]
1,CCN(CC)C(=O)[C@H](Cc1ccc2ccccc2c1)NC(=O)[C@H](CC(C)C)NC(=O)[C@@H](NC(=O)[C@@H](N)COC(=O)[C@@H]1CCCN1C(C)=O)C(C)C (H-S([Pro-Ac])VL[2Nal]-NEt2),47

# Target: T2, Tyrosine-protein phosphatase non-receptor type 11 (Homo sapiens)
# Test: Inhibition of SHP2 (unknown origin) at 5 uM
row,Structure (SMILES),inhibition [%]
1,CCN(CC)C(=O)[C@H](Cc1ccc2ccccc2c1)NC(=O)[C@H](CC(C)C)NC(=O)[C@@H](NC(=O)[C@@H](N)COC(=O)[C@@H]1CCCN1C(C)=O)C(C)C (H-S([Pro-Ac])VL[2Nal]-NEt2),33

# Target: T3, Tyrosine-protein phosphatase non-receptor type 11 (Homo sapiens, UniProt Q06124)
# T3 sequence (Q06124 whole entry): T2 sequence (whole entry)
# Test: Inhibition of SHP2 (unknown origin)
row,Structure (SMILES),IC50 [µM]
1,CCN(CC)C(=O)[C@H](Cc1ccc2ccccc2c1)NC(=O)[C@H](CC(C)C)NC(=O)[C@@H](NC(=O)[C@@H](N)COC(=O)[C@@H]1CCCN1C(C)=O)C(C)C (H-S([Pro-Ac])VL[2Nal]-NEt2),12.5
